The target in one test is T1, α1d-AR (Homo sapiens, UniProt P25100).
T1 construct: expressed in transfected cells; host or cells: COS cells, pcDNA3 vector, transient DEAE-dextran transfection
T1 sequence (P25100 1-572): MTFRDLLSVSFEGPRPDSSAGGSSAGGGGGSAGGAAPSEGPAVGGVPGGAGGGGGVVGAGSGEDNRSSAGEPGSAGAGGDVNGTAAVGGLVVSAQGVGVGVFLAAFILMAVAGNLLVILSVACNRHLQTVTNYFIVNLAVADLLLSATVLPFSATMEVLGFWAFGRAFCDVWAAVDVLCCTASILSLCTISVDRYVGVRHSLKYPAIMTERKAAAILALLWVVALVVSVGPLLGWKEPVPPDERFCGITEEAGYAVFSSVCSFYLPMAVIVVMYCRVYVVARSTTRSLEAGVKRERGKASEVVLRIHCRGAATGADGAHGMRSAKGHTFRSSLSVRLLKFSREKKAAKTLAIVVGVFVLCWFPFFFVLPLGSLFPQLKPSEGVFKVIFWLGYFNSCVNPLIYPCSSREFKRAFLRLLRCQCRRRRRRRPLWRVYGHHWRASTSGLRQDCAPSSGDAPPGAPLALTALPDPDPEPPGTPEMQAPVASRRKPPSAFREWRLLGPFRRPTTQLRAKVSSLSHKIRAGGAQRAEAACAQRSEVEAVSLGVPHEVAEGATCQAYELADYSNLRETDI
Briefly: radioligand ([125I]-HEAT) receptor binding assay, COS cell membranes expressing cloned receptor. Particulars: [125I]-HEAT 50 pM, 1 hour room temperature. An excerpt:
(§1) The first assay tested the ability of compounds of Formula I to bind to membrane bound receptors α1a-AR, α1b-AR and α1d-AR.
(§2) The DNA sequences of the three cloned human α1-AR subtypes have been published. […] We used published DNA sequence information to design primers for use in RT-PCR amplification of each subtype to obtain cloned cDNAs. Human poly A+ RNA was obtained from commercially available sources and included hippocampus and prostate samples, sources which have been cited in the literature. For the primary screen a radioligand binding assay was used which employed membrane preparations from cells expressing the individual cloned receptor cDNAs. Radiolabeled ligands with binding activity on all three subtypes (non-selective) are commercially available ([125I]-HEAT, [3H]-prazosin). Each α1 receptor subtype was cloned from poly A+ RNA by the standard method of reverse transcription-polymerase chain reaction (RT-PCR). The following sources of polyA+ RNA were used for the cloning of the α1 receptor subtypes: α1a-AR, human hippocampus and prostate, α1b-AR, human hippocampus, α1d-AR, human hippocampus. The resulting cDNAs were cloned into the pcDNA3 mammalian expression vector (Invitrogen Corp., San Diego Calif.). Each DNA was sequenced for verification and to detect any possible mutations introduced during the amplification process. Any deviation in sequence from the published consensus for each receptor subtype was corrected by site-directed mutagenesis.
(§3) The three α1-AR subtypes (a, b, d) were transfected into COS cells using a standard DEAE-dextran procedure with a chloroquine shock. In this procedure, each tissue culture dish (100 mm) was inoculated with 3.5×10^6 cells and transfected with 10 μg of DNA. Approximately 72 hours post-transfection, the cells were harvested and COS membranes were prepared. Transfected COS cells from 25 plates (100 mm) were scraped and suspended in 15 mL of TE buffer (50 mM Tris-HCl, 5 mM EDTA, pH 7.4). The suspension was disrupted with a homogenizer. It was then centrifuged at 1000× g for 10 minutes at 4° C. The supernatant was centrifuged at 34,500× g for 20 minutes at 4° C. The pellet was resuspended in 5 mL TNE buffer (50 mM Tris-HCl, 5 mM EDTA, 150 mM NaCl, pH 7.4). The resulting membrane preparation was aliquoted and stored at −70° C. The protein concentration was determined following membrane solubilization with TritonX-100.
(§4) The ability of each compound to bind to each of the α1-AR subtypes was assessed in a receptor binding assay. [125I]-HEAT, a non-selective α1-AR ligand, was used as the radiolabeled ligand. Each well of a 96-well plate received: 140 μL TNE, […] [125I]-HEAT diluted in TNE (50,000 cpm; final concentration 50 pM), 10 μL test compound diluted in DMSO (final concentration 1 pM-10 μM), […] COS cell membrane preparation expressing one of the three α1-AR subtypes (0.05-0.2 mg membrane protein). The plate was incubated for 1 hour at room temperature and the reaction mixtures were filtered through a Packard GF/C Unifilter filter plate. The filter plate was dried for 1 hour in a vacuum oven. Scintillation fluid ([…]) was added to each well, and the filter plate was counted in a Packard Topcount scintillation counter. Data was analyzed using GraphPad Prism software.
(§5) Tables A through D list the IC50 values expressed in nanomolar concentration for select compounds of the invention in all receptor subtypes.

The target in another test is T2, α1b-AR (Homo sapiens, UniProt P35368).
T2 construct: expressed in transfected cells; host or cells: COS cells, pcDNA3 vector, transient DEAE-dextran transfection
T2 sequence (P35368 1-520): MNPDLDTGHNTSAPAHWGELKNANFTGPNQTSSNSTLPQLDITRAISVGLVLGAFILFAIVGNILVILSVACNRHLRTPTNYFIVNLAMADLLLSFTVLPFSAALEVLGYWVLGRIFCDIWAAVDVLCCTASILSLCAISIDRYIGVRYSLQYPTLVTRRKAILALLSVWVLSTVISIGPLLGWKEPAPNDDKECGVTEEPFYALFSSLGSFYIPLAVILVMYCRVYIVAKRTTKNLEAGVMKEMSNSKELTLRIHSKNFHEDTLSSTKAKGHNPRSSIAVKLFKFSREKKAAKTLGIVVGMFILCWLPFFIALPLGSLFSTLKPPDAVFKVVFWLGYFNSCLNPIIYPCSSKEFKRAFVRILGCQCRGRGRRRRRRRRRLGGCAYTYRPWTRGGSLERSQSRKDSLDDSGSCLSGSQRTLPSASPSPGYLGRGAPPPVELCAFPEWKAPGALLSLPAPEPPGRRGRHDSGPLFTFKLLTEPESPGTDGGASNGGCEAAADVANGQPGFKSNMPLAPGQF
Described as above. Particulars: [125I]-HEAT 50 pM, 1 hour room temperature.
Excerpt: as §1, §2, §3, §4, §5

Consider `Cc1ccc(N2C(=O)c3ccc(C(=O)NCC(O)CN4CCN(c5ccccc5OC(C)C)CC4)cc3C2=O)cc1C` (stereo not shown) [Compound 39], for which the IC50 on α1d-AR is 73 nM; on α1b-AR, over 2000 nM.
In the case of `Cc1cccc(N2C(=O)c3ccc(C(=O)NCC(O)CN4CCN(c5ccccc5OC(C)C)CC4)cc3C2=O)c1` (stereo not shown) [Compound 49], the IC50 at α1d-AR is 73 nM; on α1b-AR, over 2000 nM.

What is called IC50 is the midpoint of a concentration-inhibition curve. The low end stands for higher potency, the high end for lower potency.

The record behind these values is US6780994B2, “Phthalimido arylpiperazines useful in the treatment of benign prostatic hyperplasia” (Ortho-McNeil Pharmaceutical, Inc., priority 1998, dated 2004).
